From patent US20260027104A1, “NOVEL NAPHTHYL AND ISOQUINOLINE SULFONAMIDE DERIVATIVES” (Hoffmann-La Roche Inc., priority 2022, published 2026)

Target: human GPR17 short isoform (Homo sapiens, UniProt Q13304)
Test: hGPR17 cAMP assay (GPR17 cAMP Assay Protocol, antagonist mode)
Type: cell-based
Details: CHO-K1 cells stably expressing untagged human GPR17 short isoform; EC80 of agonist MDL29,951; forskolin 15 μM; 30 min, room temperature; TR-FRET cAMP readout
Method: GPR17 cAMP Assay Protocol:
CHO-K1 cells stably expressing vector containing untagged human GPR17 short isoform (Roche) were cultured at 37° C./5% CO2 in DMEM (Dulbecco's Modified Eagle Medium):F-12 (1:1) supplemented with 10% foetal bovine serum and 400 μg/ml Geneticin.
Changes in intracellular cyclic adenosine monophosphate (cAMP) levels were quantified using the Nano-TRF Detection Assay kit (Roche Diagnostics, Cat. No. 05214386001). This assay allows for direct cAMP quantification in a homogeneous solution. cAMP is detected based on time-resolved fluorescence energy transfer (TR-FRET) and competitive binding of ruthenylated cAMP and endogenous cAMP to an anti-cAMP monoclonal antibody labeled with AlexaFluor-700. The Ruthenium complex serves as the FRET donor and transfers energy to AlexaFluor-700. The FRET signal is inversely proportional to the cAMP concentration.
CHO-GPR17S cells were detached with Accutase and resuspended in assay buffer consisting of Hank's Balanced Salt Solution (HBSS), 10 mM HEPES (4-(2-hydroxyethyl) piperazine-1-ethanesulfonic acid solution) and 0.1% bovine serum albumin (pH 7.4). The cells were seeded in black 384-well plates (Corning) at a density of 10′000 cells/20 μl assay buffer until the addition of compounds.
Test antagonist compounds were serially diluted in dimethyl sulfoxide (DMSO) and spotted in 384-well plates. The compounds were then diluted in BSS buffer supplemented with an EC80 concentration of MDL29,951 (3-(2-Carboxy-4,6-dichloroindol-3-yl)propionic acid) (GPR17 agonist) plus 3-Isobutyl-1-methylxanthine (IBMX) (0.5 mM final concentration) and added to the cells at room temperature. Forskolin (15 μM final concentration) was added 5 minutes after the test compounds and the cells were incubated at room temperature for 30 minutes. The assay was stopped by adding cAMP detection mix (containing detergents for cell lysis) for 90 minutes at room temperature.
Cellular cAMP was measured using a Paradigm reader (Molecular Devices). The raw data was used to calculate the FRET signal based on the assay's P-factor as per cAMP kit instructions. The data was normalized to the maximal activity of a reference antagonist and dose response curves were fitted to the percent activity of the test compounds using a sigmoidal dose response model (Genedata Screener).
Results in the hGPR17 cAMP assay are provided for compounds of formula I in Table 1

Chain of human GPR17 short isoform (Q13304 29-367): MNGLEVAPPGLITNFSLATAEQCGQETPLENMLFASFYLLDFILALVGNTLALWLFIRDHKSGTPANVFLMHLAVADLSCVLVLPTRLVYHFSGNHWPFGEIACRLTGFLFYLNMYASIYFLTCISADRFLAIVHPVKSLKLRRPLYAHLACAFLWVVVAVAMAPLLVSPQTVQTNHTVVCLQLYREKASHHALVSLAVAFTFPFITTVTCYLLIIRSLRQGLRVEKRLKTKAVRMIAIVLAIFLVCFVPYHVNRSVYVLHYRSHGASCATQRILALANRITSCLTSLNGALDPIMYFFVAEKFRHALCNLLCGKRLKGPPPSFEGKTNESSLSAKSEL

Row | Structure (SMILES) | IC50
1 | O=S(=O)(Nc1cc(F)c(OC(F)F)nc1OC(F)F)c1cccc2nc(Cl)ccc12 [Example 11, N-[2,6-bis(difluoromethoxy)-5-fluoro-3-pyridyl]-2-chloro-quinoline-5-sulfonamide] | 0.111 µM
2 | CNc1ncc(S(=O)(=O)Nc2cc(F)c(CC#N)cc2F)c2ccc(Cl)cc12 [Example 44, 7-chloro-N-[4-(cyanomethyl)-2,5-difluoro-phenyl]-1-(methylamino)isoquinoline-4-sulfonamide] | 0.315 µM
3 | Cc1ccc(S(=O)(=O)Nc2cc(F)c(CC#N)cc2F)c2cccnc12 [Example 47, N-[4-(cyanomethyl)-2,5-difluoro-phenyl]-8-methyl-quinoline-5-sulfonamide] | 0.933 µM
4 | COc1nc(OCC(F)F)c(F)cc1NS(=O)(=O)c1cncc2nc(Cl)ccc12 [Example 50, 2-chloro-N-[6-(2,2-difluoroethoxy)-5-fluoro-2-methoxy-3-pyridyl]-1,7-naphthyridine-5-sulfonamide] | 0.038 µM
5 | N#CCc1cc(F)c(NS(=O)(=O)c2ccnc3cc(Cl)ccc23)cc1F [Example 53, 7-chloro-N-[4-(cyanomethyl)-2,5-difluoro-phenyl]quinoline-4-sulfonamide] | 0.976 µM
6 | N#CCc1cc(F)c(NS(=O)(=O)c2cccc3nc(Cl)ccc23)cc1F [Example 3, 2-chloro-N-[4-(cyanomethyl)-2,5-difluoro-phenyl]quinoline-5-sulfonamide] | 0.217 µM
7 | COc1nc(OCC(F)F)c(F)cc1NS(=O)(=O)c1cccc2c(N(C)C)cccc12 [Example 40, N-[6-(2,2-difluoroethoxy)-5-fluoro-2-methoxy-3-pyridyl]-5-(dimethylamino)naphthalene-1-sulfonamide] | 0.013 µM
8 | COc1nc(OCC(F)F)c(F)cc1NS(=O)(=O)c1cccc2cc(Cl)ccc12 [Example 34, 6-chloro-N-[6-(2,2-difluoroethoxy)-5-fluoro-2-methoxy-3-pyridyl]naphthalene-1-sulfonamide] | 0.048 µM
9 | N#CCc1cc(F)c(NS(=O)(=O)c2cccc3ccccc23)cc1F [Example 1, N-(4-(cyanomethyl)-2,5-difluorophenyl)naphthalene-1-sulfonamide] | 0.282 µM
10 | N#CCc1cc(F)c(NS(=O)(=O)c2c[nH]c(=O)c3nc(Cl)ccc23)cc1F [Example 28, 2-chloro-N-[4-(cyanomethyl)-2,5-difluoro-phenyl]-8-oxo-7H-1,7-naphthyridine-5-sulfonamide] | 0.955 µM
11 | CNc1ncc(S(=O)(=O)Nc2cc(F)c(OCC(F)F)nc2OC)c2ccc(Cl)cc12 [Example 43, 7-chloro-N-[6-(2,2-difluoroethoxy)-5-fluoro-2-methoxy-3-pyridyl]-1-(methylamino)isoquinoline-4-sulfonamide] | 0.035 µM
12 | COc1nc(OCC(F)F)c(F)cc1NS(=O)(=O)c1cccc2nc(N(C)C)ccc12 [Example 31, N-[6-(2,2-difluoroethoxy)-5-fluoro-2-methoxy-3-pyridyl]-2-(dimethylamino)quinoline-5-sulfonamide] | 0.065 µM
13 | COc1nc(OCC(F)F)c(F)cc1NS(=O)(=O)c1cccc2c(Cl)cccc12 [Example 18, 5-chloro-N-[6-(2,2-difluoroethoxy)-5-fluoro-2-methoxy-3-pyridyl]naphthalene-1-sulfonamide] | 0.043 µM
14 | COc1nc(OCC(F)F)c(F)cc1NS(=O)(=O)c1cn(C)c(=O)c2cc(Cl)ccc12 [Example 36, 7-chloro-N-[6-(2,2-difluoroethoxy)-5-fluoro-2-methoxy-3-pyridyl]-1-keto-2-methyl-isoquinoline-4-sulfonamide] | 0.371 µM
15 | COc1nc(NS(=O)(=O)c2c[nH]c(=O)c3cc(Cl)ccc23)c(F)cc1OCC(F)F [Example 25, 7-chloro-N-[5-(2,2-difluoroethoxy)-3-fluoro-6-methoxy-2-pyridyl]-1-oxo-2H-isoquinoline-4-sulfonamide] | 0.05 µM
16 | COc1nc(OCC(F)F)c(F)cc1NS(=O)(=O)c1cncc2cc(Cl)ccc12 [Example 15, 7-chloro-N-[6-(2,2-difluoroethoxy)-5-fluoro-2-methoxy-3-pyridyl]isoquinoline-4-sulfonamide] | 0.011 µM
17 | N#CCc1cc(F)c(NS(=O)(=O)c2c[nH]c(=O)c3c(Cl)c(Cl)ccc23)cc1F [Example 38, 7,8-dichloro-N-[4-(cyanomethyl)-2,5-difluoro-phenyl]-1-keto-2H-isoquinoline-4-sulfonamide] | 0.182 µM
18 | COc1nc(NS(=O)(=O)c2cncc3cc(Cl)ccc23)c(F)cc1OCC(F)F [Example 14, 7-chloro-N-[5-(2,2-difluoroethoxy)-3-fluoro-6-methoxy-2-pyridyl]isoquinoline-4-sulfonamide] | 0.415 µM
19 | CN(C)c1ncc(S(=O)(=O)Nc2cc(F)c(CC#N)cc2F)c2ccc(Cl)cc12 [Example 42, 7-chloro-N-[4-(cyanomethyl)-2,5-difluoro-phenyl]-1-(dimethylamino)isoquinoline-4-sulfonamide] | 0.423 µM
20 | COc1nc(NS(=O)(=O)c2cccc3nc(Cl)ccc23)c(F)cc1OCC(F)F [Example 9, 2-chloro-N-[5-(2,2-difluoroethoxy)-3-fluoro-6-methoxy-2-pyridyl]quinoline-5-sulfonamide] | 0.495 µM
21 | COc1nc(C2CC2)c(F)cc1NS(=O)(=O)c1cccc2nc(Cl)ccc12 [Example 4, 2-chloro-N-(6-cyclopropyl-5-fluoro-2-methoxy-3-pyridyl)quinoline-5-sulfonamide] | 0.045 µM
22 | COc1nc(OC(F)F)c(F)cc1NS(=O)(=O)c1cccc2nc(Cl)ccc12 [Example 6, 2-chloro-N-[6-(difluoromethoxy)-5-fluoro-2-methoxy-3-pyridyl]quinoline-5-sulfonamide] | 0.049 µM
23 | COc1nc(OCC(F)F)c(F)cc1NS(=O)(=O)c1c[nH]c(=O)c2c(Cl)c(Cl)ccc12 [Example 39, 7,8-dichloro-N-[6-(2,2-difluoroethoxy)-5-fluoro-2-methoxy-3-pyridyl]-1-keto-2H-isoquinoline-4-sulfonamide] | 0.007 µM
24 | COc1nc(NS(=O)(=O)c2c[nH]c(=O)c3cc(Cl)ccc23)nc(OC)c1CC(F)F [Example 24, 7-chloro-N-[5-(2,2-difluoroethyl)-4,6-dimethoxy-pyrimidin-2-yl]-1-keto-2H-isoquinoline-4-sulfonamide] | 0.278 µM
25 | COc1nc(OCC(F)F)c(F)cc1NS(=O)(=O)c1cccc2nc(Br)ccc12 [Example 54, 2-bromo-N-[6-(2,2-difluoroethoxy)-5-fluoro-2-methoxy-3-pyridyl]quinoline-5-sulfonamide] | 0.009 µM
26 | COc1nc(OCC(F)F)c(F)cc1NS(=O)(=O)c1cccc2nc(Cl)ccc12 [Example 10, 2-chloro-N-[6-(2,2-difluoroethoxy)-5-fluoro-2-methoxy-3-pyridyl]quinoline-5-sulfonamide] | 0.028 µM
27 | COc1nc(NS(=O)(=O)c2c[nH]c(=O)c3cc(Cl)ccc23)ncc1OCCF [Example 22, 7-chloro-N-[5-(2-fluoroethoxy)-4-methoxy-pyrimidin-2-yl]-1-keto-2H-isoquinoline-4-sulfonamide] | 0.331 µM
28 | N#CCc1cc(F)c(NS(=O)(=O)c2cccc3c(Cl)cccc23)cc1F [Example 17, 5-chloro-N-[4-(cyanomethyl)-2,5-difluoro-phenyl]naphthalene-1-sulfonamide] | 0.088 µM
